Assay results taken from PMC12274840 (The Journal of Biological Chemistry, 2025).
Where “and” joins values, the source holds several entries; their conditions need not be identical. Identical values can stand only once.

What was measured:
BlaC I105R [1] = molecular target: T1, BlaC I105R (Mycobacterium tuberculosis, UniProt P9WKD3, I117R); assay type: biochemical
BlaC I105R [2] = molecular target: T1, BlaC I105R; assay type: biochemical; details: pH 6.4

O=C(O)[C@H]1/C(=C/CO)O[C@@H]2CC(=O)N21 [clavulanic acid]
in vitro sensitivity to inhibition compared with wild type (BlaC I105R [1]): less sensitive | k1 (BlaC I105R [1]): 1e+06 M⁻¹ s⁻¹ | k2 (BlaC I105R [1]): 4.6 and 4.6 10^−2 s^−1 | k3 (BlaC I105R [1]): 2 and 2 10^−3 s^−1

NC(=O)[C@@H]1CC[C@@H]2CN1C(=O)N2OS(=O)(=O)O [avibactam]
in vitro sensitivity to inhibition compared with wild type (BlaC I105R [1]): less sensitive | k2 (BlaC I105R [1]): 9.5 and 9.5 10^−2 s^−1 | k-2 (BlaC I105R [1]): 0.1 and 0.1 10^−3 s^−1

CC1(C)S[C@@H]2[C@H](NC(=O)C(C(=O)O)c3ccccc3)C(=O)N2[C@H]1C(=O)O (stereo partly drawn) [carbenicillin]
kcat (BlaC I105R [2]): 0.27 ± 0.01 s⁻¹

O=C(Cc1cccs1)N[C@@H]1C(=O)N2C(C(=O)O)=C(/C=C/c3ccc([N+](=O)[O-])cc3[N+](=O)[O-])CS[C@H]12 [nitrocefin]
kcat (BlaC I105R [2]): 24 ± 2 s⁻¹ | ka (BlaC I105R [1]): 180000 M⁻¹ s⁻¹ | kc (BlaC I105R [1]): 40 s⁻¹ and 57 s⁻¹

CC1(C)S[C@@H]2[C@H](NC(=O)[C@H](N)c3ccccc3)C(=O)N2[C@H]1C(=O)O [ampicillin]
kcat (BlaC I105R [2]): 3.4 ± 0.1 s⁻¹
